Measurements taken from patent US8513462B2, “Pesticides and uses thereof” (Dow AgroSciences LLC, priority 2007, dated 2013).

Tested on: not given
Assay: not given
Settings: not given

melting point [°C] | SMILES
114 to 116 | CCc1csc(N=S(C)(=O)Cc2ccc(Cl)nc2)n1 (stereo not shown) [Compound 59]
124 to 127 | CC(c1ccc(C(F)(F)F)nc1)S(C)(=O)=Nc1nc(-c2ccc(C(F)(F)F)cc2)cs1 (stereo not shown) [Compound 45]
95 to 100 | CC(c1ccc(C(F)(F)F)nc1)S(C)(=O)=Nc1nc(C(F)(F)C(F)(F)F)cs1 (stereo not shown) [Compound 30]
153 to 160 | COc1ccc(-c2csc(N=S(C)(=O)C(C)c3ccc(C(F)(F)F)nc3)n2)cc1OC (stereo not shown) [Compound 48]

SMILES | melting point [°C]
CC(C)(C)c1csc(N=S2(=O)CCCC2c2ccc(Cl)nc2)n1 (stereo not shown) [Compound 76] | 77 to 81

Tested on: green peach aphid (Myzus persicae)
Assay: Insecticidal test for green peach aphid in foliar spray assay
Type: in vivo
Settings: 72 h, foliar spray on cabbage, Corrected % Control (Abbott) after three days, read-out: Rating against green peach aphid on cabbage (foliar spray)
Description: Squash seedlings with fully expanded cotyledon leaves were trimmed to one cotyledon per plant and infested with cotton aphid (wingless adults and nymphs) 1 day prior to chemical application. Each plant was examined before chemical application to ensure uniform infestation (ca. 30-70 aphids per plant). Compounds (2 mg) were dissolved in 2 ml of acetone:methanol (1:1) solvent, forming stock solutions of 1000 ppm. The stock solutions were diluted 5× with 0.025% Tween 20 in H2O to obtain a solution at 200 ppm. A hand-held Devilbiss aspirator type sprayer was used to apply the spray solutions until runoff to both sides of the squash cotyledon leaves. Four plants (4 replications) were used for each compound. Reference plants (solvent check) were sprayed with the diluent only. Treated plants were held in a holding room for 3 days at approximately 23° C. and 40% RH before the number of live aphids on each plant was recorded. Insecticidal activity was measured by Corrected % Control using Abbott's correction formula and presented in Table 1-Activity: Corrected % Control=100*(X−Y)/X • where X=No. of live aphids on solvent check plants • Y=No. of live aphids on treated plants Results are shown in Table 7. Insecticidal Test for Green Peach Aphid (Myzus persicae) in Foliar Spray Assay Cabbage seedlings grown in 3-inch pots, with 2-3 small (3-5 cm) true leaves, were used as test substrate. The seedlings were infested with 20-50 green peach aphids (wingless adult and nymph) 1-2 days prior to chemical application. Four seedlings were used for each treatment. Compounds (2 mg) were dissolved in 2 ml of acetone:methanol (1:1) solvent, forming stock solutions of 1000 ppm. The stock solutions were diluted 5× with 0.025% Tween 20 in H2O to obtain a solution at 200 ppm. A hand-held Devilbiss aspirator sprayer was used for spraying a solution to both sides of cabbage leaves until runoff. Reference plants (solvent check) were sprayed with the diluent only. Treated plants were held in a holding room for three days at approximately 23° C. and 40% RH prior to grading. Evaluation was conducted by counting the number of live aphids per plant under a microscope. Insecticidal activity was measured by using Abbott's correction formula: Corrected % Control=100*(X−Y)/X • where X=No. of live aphids on solvent check plants • Y=No. of live aphids on treated plants

SMILES | pest or weed control at 200 ppm [%]
Cc1csc(N=S(C)(=O)C(C)c2ccc(C(F)(F)F)nc2)n1 (stereo not shown) [Compound 14] | < 80
CC(c1ccc(C(F)(F)F)nc1)S(C)(=O)=Nc1nc(-c2ccc(Cl)c(Cl)c2)cs1 (stereo not shown) [Compound 20] | 80 to 100
CCc1csc(N=S(C)(=O)Cc2ccc(Cl)nc2)n1 (stereo not shown) [Compound 59] | 80 to 100
Cc1cnc(N=S(C)(=O)C(C)c2ccc(C(F)(F)F)nc2)s1 (stereo not shown) [Compound 63, 5-{1-[methyl(5-methyl-1,3-thiazol-2-yl)sulfonimidoyl]ethyl}-2-(trifluoromethyl)pyridine] | 80 to 100
Cc1oc(N=S(C)(=O)C(C)c2ccc(C(F)(F)F)nc2)nc1-c1ccc(Br)cc1 (stereo not shown) [Compound 73] | 80 to 100
Cc1sc(N=S(C)(=O)C(C)c2ccc(C(F)(F)F)nc2)nc1-c1ccccc1 (stereo not shown) [Compound 66, 5-{1-[methyl(5-methyl-4-phenyl-1,3-thiazol-2-yl)sulfonimidoyl]ethyl}-2-(trifluoromethyl)pyridine] | 80 to 100
CC(c1ccc(C(F)(F)F)nc1)S(C)(=O)=Nc1nc(-c2ccc(C(F)(F)F)cc2)cs1 (stereo not shown) [Compound 45] | 80 to 100
CC(c1ccc(C(F)(F)F)nc1)S(C)(=O)=Nc1nc(C(F)(F)F)cs1 (stereo not shown) [Compound 26, 3-[1-ethyl(N-(2-(4-trifluoromethyl)thiazole)-sulfoximinyl)(methyl)]-6-trifluoromethylpyridine] | 80 to 100
CC(c1ccc(C(F)(F)F)nc1)S(C)(=O)=Nc1nc(C(F)(F)C(F)(F)F)cs1 (stereo not shown) [Compound 30] | 80 to 100
COc1ccc(-c2csc(N=S(C)(=O)C(C)c3ccc(C(F)(F)F)nc3)n2)cc1OC (stereo not shown) [Compound 48] | 80 to 100
CC(C)(C)c1csc(N=S2(=O)CCCC2c2ccc(Cl)nc2)n1 (stereo not shown) [Compound 76] | 80 to 100
CC(c1ccc(C(F)(F)F)nc1)S(C)(=O)=Nc1ncc(C#N)s1 (stereo not shown) [Compound 16] | 80 to 100
CC(c1ccc(C(F)(F)F)nc1)S(C)(=O)=Nc1ncc(-c2ccccc2)s1 (stereo not shown) [Compound 62, 5-{1-[methyl(5-phenyl-1,3-thiazol-2-yl)sulfonimidoyl]ethyl}-2-(trifluoromethyl)pyridine] | 80 to 100
CC(c1ccc(C(F)(F)F)nc1)S(C)(=O)=Nc1ccsc1[N+](=O)[O-] (stereo not shown) [Compound 17] | < 80
CC(c1ccc(C(F)(F)F)nc1)S(C)(=O)=Nc1ncccc1F (stereo not shown) [Compound 9] | 80 to 100
CC(c1ccc(C(F)(F)F)nc1)S(C)(=O)=Nc1nc2ccccc2s1 (stereo not shown) [Compound 25, 3-[1-ethyl(N-(2-benzothiazole)-sulfoximinyl)(methyl)]-6-trifluoromethylpyridine] | < 80
CCCCC(c1ccc(C(F)(F)F)nc1)S(C)(=O)=Nc1nc(-c2ccc(OC)cc2)cs1 (stereo not shown) [Compound 60, 5-{1-[methyl(4-(4-methoxyphenyl)-1,3-thiazol-2-yl)sulfonimidoyl]pentyl}-2-(trifluoromethyl)pyridine] | < 80
Cc1nc(N=S(C)(=O)C(C)c2ccc(C(F)(F)F)nc2)sc1C (stereo not shown) [Compound 67, 5-{1-[(4,5-dimethyl-1,3-thiazol-2-yl)(methyl)sulfonimidoyl]ethyl}-2-(trifluoromethyl)pyridine] | 80 to 100
CC(c1ccc(C(F)(F)F)nc1)S(C)(=O)=Nc1nc(-c2csc3ccccc23)cs1 (stereo not shown) [Compound 40] | 80 to 100
CC(c1ccc(C(F)(F)F)nc1)S(C)(=O)=Nc1nc(-c2ccc(Cl)cc2)cs1 (stereo not shown) [Compound 22] | 80 to 100
Cc1cc(-c2csc(N=S(C)(=O)C(C)c3ccc(C(F)(F)F)nc3)n2)ccc1Cl (stereo not shown) [Compound 50] | 80 to 100
CC(c1ccc(C(F)(F)F)nc1)S(C)(=O)=Nc1nc(-c2ccncc2)cs1 (stereo not shown) [Compound 34] | 80 to 100
COc1ccc(-c2csc(N=S(C)(=O)C(C)c3ccc(C(F)(F)F)nc3)n2)cc1 (stereo not shown) [Compound 23] | 80 to 100
CC(c1ccc(C(F)(F)F)nc1)S(C)(=O)=Nc1nc(-c2ccccc2)co1 (stereo not shown) [Compound 74] | < 80

SMILES | pest or weed control at 200 ppm [%]
Cc1coc(N=S(C)(=O)C(C)c2ccc(C(F)(F)F)nc2)n1 (stereo not shown) [Compound 71] | 80 to 100
CC(c1ccc(C(F)(F)F)nc1)S(C)(=O)=Nc1cccc(C(F)(F)F)n1 (stereo not shown) [Compound 11] | < 80
CC(c1ccc(C(F)(F)F)nc1)S(C)(=O)=Nc1cccc(F)n1 (stereo not shown) [Compound 10] | < 80
CC(c1ccc(C(F)(F)F)nc1)S(C)(=O)=Nc1nc(-c2ccc3c(c2)OCO3)cs1 (stereo not shown) [Compound 47] | 80 to 100
CC(c1ccc(C(F)(F)F)nc1)S(C)(=O)=Nc1nc(-c2ccc([N+](=O)[O-])cc2)cs1 (stereo not shown) [Compound 49] | 80 to 100
CC(c1ccc(C(F)(F)F)nc1)S(C)(=O)=Nc1nnc(C(F)F)s1 (racemic) [Compound 69, 5-{1-[[5-(difluoromethyl)-1,3,4-thiadiazol-2-yl](methyl)sulfonimidoyl]ethyl}-2-(trifluoromethyl)pyridine] | 80 to 100
CSCc1cnc(N=S(C)(=O)C(C)c2ccc(C(F)(F)F)nc2)s1 (stereo not shown) [Compound 64, 5-[1-(methyl{5-[(methylsulfanyl)methyl]-1,3-thiazol-2-yl}sulfonimidoyl)ethyl]-2-(trifluoromethyl)pyridine] | 80 to 100
COc1ccc(-c2csc(N=S(C)(=O)C(C)c3ccc(C(F)(F)F)nc3)n2)c(OC)c1 (stereo not shown) [Compound 53] | 80 to 100
CC(c1ccc(C(F)(F)F)nc1)S(C)(=O)=Nc1nc(-c2cc(-c3ccc(Cl)cc3)no2)cs1 (stereo not shown) [Compound 42] | 80 to 100
CC(c1ccc(C(F)(F)F)nc1)S(C)(=O)=Nc1nc(-c2cccc(Cl)c2)cs1 (stereo not shown) [Compound 21] | 80 to 100
Cc1sc(N=S(C)(=O)C(C)c2ccc(C(F)(F)F)nc2)nc1-c1ccc(Br)cc1 (stereo not shown) [Compound 68, 5-{1-[[4-(4-bromophenyl)-5-methyl-1,3-thiazol-2-yl](methyl)sulfonimidoyl]ethyl}-2-(trifluoromethyl)pyridine] | 80 to 100
O=S1(=Nc2nc(C(F)(F)F)cs2)CCCC1c1ccc(Cl)nc1 (stereo not shown) [Compound 79] | 80 to 100
CC(c1ccc(C(F)(F)F)nc1)S(C)(=O)=Nc1nc2c(s1)CCc1nonc1-2 (racemic) [Compound 65, 7-[(methyl(oxo){1-[6-(trifluoromethyl)-3-pyridinyl]ethyl}-λ^6-sulfanylidene)amino]-4,5-dihydro[1,3]thiazolo[4,5-e][2,1,3]-benzoxadiazole] | 80 to 100
CC(c1ccc(C(F)(F)F)nc1)S(C)(=O)=Nc1ncc(Cc2ccccc2)s1 (racemic) [Compound 61, 5-{1-[(5-benzyl-1,3-thiazol-2-yl)(methyl)sulfonimidoyl]ethyl}-2-(trifluoromethyl)pyridine] | 80 to 100
CCc1coc(N=S(C)(=O)C(C)c2ccc(C(F)(F)F)nc2)n1 (stereo not shown) [Compound 70, 5-{1-[methyl(4-ethyl-1,3-oxazol-2-yl)sulfonimidoyl]ethyl}-2-(trifluoromethyl)pyridine] | 80 to 100
Cc1nc(N=S(C)(=O)C(C)c2ccc(C(F)(F)F)nc2)oc1C (stereo not shown) [Compound 72] | < 80
CCc1csc(N=S(C)(=O)C(C)c2ccc(C(F)(F)F)nc2)n1 (stereo not shown) [Compound 28] | 80 to 100
COc1ccc(-c2csc(N=S(C)(=O)Cc3ccc(Cl)nc3)n2)cc1 (stereo not shown) [Compound 57, 5-{[methyl[4-(4-methoxyphenyl)-1,3-thiazol-2-yl]sulfonimidoyl]methyl}-2-chloropyridine] | < 80
CCOC(C)(C)c1csc(N=S(C)(=O)C(C)c2ccc(C(F)(F)F)nc2)n1 (stereo not shown) [Compound 31] | 80 to 100
Cc1ccsc1-c1nc(N=S(C)(=O)C(C)c2ccc(C(F)(F)F)nc2)sc1C (stereo not shown) [Compound 36] | 80 to 100
Cc1ccc(-c2csc(N=S(C)(=O)C(C)c3ccc(C(F)(F)F)nc3)n2)cc1 (stereo not shown) [Compound 19, 5-{1-[methyl(4-(4-methylphenyl)-1,3-thiazol-2-yl)sulfonimidoyl]ethyl}-2-(trifluoromethyl)pyridine] | 80 to 100
CCOC(=O)c1csc(N=S(C)(=O)C(C)c2ccc(C(F)(F)F)nc2)n1 (stereo not shown) [Compound 18] | 80 to 100
CC(c1ccc(C(F)(F)F)nc1)S(C)(=O)=Nc1cc(F)ccn1 (stereo not shown) [Compound 3, 3-[1-ethyl(N-(2-(4-fluoro)pyridine)-sulfoximinyl)(methyl)]-6-trifluoromethylpyridine] | 80 to 100
